The source of these data is patent publication US20260265267A1, “NOVEL COMPOUNDS WITH MTORC2-INHIBITORY ACTIVITY AND USES THEREOF” (Aliad Biopharma, priority 2023, published 2026).

For one assay, the system named is LC3-II. In words: LC3-II formation as indicator of autophagy in HeLa cells (Western blot). It counts as cell-based, human. Particulars: Homo sapiens, 9 hours, read-out: LC3-II (% control). As to the method:
(§1) Specifically, HeLa cells were cultured in a 5% CO2 incubator at 37° C. in DMEM (Dulbecco's Modified Eagles Media) medium supplemented with 10% FBS, penicillin (100 unit/ml), and streptomycin (100 μg/ml). Cultivation was started by seeding 4×10^5 cells in a 100 mm culture dish, and subculture was carried out every 3 days.
(§2) Human cell line HeLa cells were seeded in a 60 mm culture dish at a density of 2×10^5 cells/plate, and cultured for 24 hours. Then, HeLa cells were treated with 70 types of compounds at a concentration of 40 μM each for 9 hours. HeLa cells were washed twice with cold 1×PBS, and then lysed with 100 μl of RIPA buffer (50 mM Tris-HCl (pH7.4), 0.25% sodium deoxycholate, 50 mM NaF, 1% NP-40, 150 mM NaCl, 1 mM β-glycerophosphate, 1 mM PMSF, 1 mM NaVO4, 1 μg/ml leupeptin, 1 μg/ml pepstatin A, 10 nM calyculin A, 10 μg/ml aprotinin, 1 mM EDTA) to hemolyze the cell membrane. Then, the lysates were centrifuged at 12,000 rpm at 4° C. for 10 minutes to collect the supernatant, which is cell lysate. Protein concentration in the cell lysate was determined using the BCA protein assay kit (Thermo Fisher Scientific), and equal amounts of protein were separated by SDS-PAGE.
(§3) Western blot analysis was performed by the following method. […] After washing the membrane three times for 5 minutes each with TBS-T buffer, it was incubated with primary antibodies diluted in TBS-T buffer containing 5% skim milk or 5% BSA overnight at 4° C. Subsequently, the membrane was washed three times for 5 minutes each with TBS-T buffer, and then incubated with secondary antibodies diluted in TBS-T buffer containing 5% skim milk at room temperature for 30 minutes. The membrane was washed five times for 5 minutes each with TBS-T buffer containing 5% skim milk, and then the protein bands bound by the secondary antibody were detected using a chemiluminescence method. The primary antibodies used were Akt (cell signaling, #4691), pAkt(S473) (Cell signaling, #4060), p70S6K (Cell signaling, #S6198), pp70S6K(T389) (cell signaling, #9205S), LC3-II (MBL, #PM036), and the secondary antibodies used were HRP conjugated anti-rabbit (Jackson immunoresearch laboratory, #711-035-152) and HRP conjugated anti-mouse IgG (Jackson immunoresearch laboratory, #515-035-072).
LC3-II formation was selected as an indicator of autophagy in HeLa cells, and the LC3-II signal obtained from Western blot analysis was normalized to the pan-Akt signal and the data were expressed as a percentage relative to the control group treated with DMSO only, which is a vehicle.

Another assay addresses T1, mTORC1 (Homo sapiens, UniProt P42345).
T1 construct: the following experiments were conducted in HeLa cells; endogenous in cells; host or cells: HeLa
In words: mTORC1 inhibitory activity in HeLa cells (p70S6K Thr389 phosphorylation, Western blot). It counts as cell-based. Particulars: for remaining activity at 40 µM: 9 hours, read-out: pThr389-S6K/S6K (% control); for inhibition at 40 µM: HeLa, 9 h, read-out: reduction in p70S6K Thr389 phosphorylation compared to the control group. The protocol: as §1, §2, §3
As an mTORC1 activity indicator in HeLa cells, the level of p70S6K Thr389 phosphorylation was selected as a marker, and the level of phosphor-p70S6K (Thr389) signal measured by Western blot analysis was normalized to a level of pan-p70S6K signal, and then expressed as a percentage of the control group treated with only DMSO, which is a vehicle.

The target of a further assay is T2, mTORC2 (Homo sapiens, UniProt P42345).
T2 construct: the following experiments were conducted in HeLa cells; endogenous in cells; host or cells: HeLa
The assay is described as follows: mTORC2 inhibitory activity in HeLa cells (Akt Ser473 phosphorylation, Western blot). Format: cell-based. Particulars: for selective inhibition of mTORC2: 40 μM, versus mTORC1; for selective inhibition of mTORC2 / remaining activity at 40 µM: 9 hours; for remaining activity at 40 µM: read-out: pSer473-AKT/AKT (% control); for inhibition at 40 µM: HeLa, 9 h, read-out: reduction in Akt Ser473 phosphorylation compared to the control group. The protocol:
as §1, §2, §3
As an mTORC2 activity indicator in HeLa cells, the level of Akt Ser473 phosphorylation was selected as a marker, and the phosphor-Akt (Ser473) signal obtained from Western blot analysis was normalized to the pan-Akt signal, and the data were expressed as a percentage relative to the control group treated with DMSO only, which is a vehicle.

Assay [1] relates to 5×FAD Alzheimer's disease model mice. The assay is described as follows: Passive avoidance test in 5×FAD mice (long-term memory). Format: in vivo. Particulars: 5 mg/kg, 14 days / 2 weeks (FIG. 7). As to the method:
In order to evaluate the efficacy of HN2210, HN2213, and HN2313 on Alzheimer's disease-related symptoms, specifically regarding 1) memory and cognitive impairment, 2) amyloid plaques, 3) neurofibrillary tangles (NFTs), and 4) brain inflammation, an in vivo efficacy assessment of HN2210, HN2213 and HN2313 was conducted using 5×FAD Alzheimer's disease model mice. The 5×FAD mice were purchased from Jackson Lab, USA (Cat #034840-JAX) and crossed once with C57bl6 mice to produce F1 heterozygous offspring (Het). The compound was administered via intraperitoneal injection to 6-month-old 5×FAD Het mice, followed by behavioral testing. The normal control mice, which were littermates of the 5×FAD Het mice, were aged to 6 months and received DMSO injection at the same volume.
Specifically, to mice trained to avoid bright light three times daily, an electric foot shock (1 mA, 300 g) was applied for 3 seconds in a dark room at the same time on the next day. After 24 hours, the mice were placed again in the same room, and the avoidance response by light, that is, the time taken to move from the bright room to the dark room was measured. At 24 hours after habituation training, the mice were placed back into the bright room, and the latency time for entering the dark room was recorded over a period of 720 seconds.

For `CS(=O)(=O)Nc1ccc2c(c1F)COc1cc3c(cc1C2=O)OCO3` [HN2302, N-(7-fluoro-11-oxo-6,11-dihydro-[1,3]dioxolo[4′,5′:4,5]benzo[1,2-b]benzo[e]oxepin-8-yl)methanesulfonamide], the activity at 40 µM with LC3-II worked out at 108%. Also, the remaining activity at 40 µM on mTORC1 worked out at 122%. On mTORC2, the “selective inhibition of mTORC2” value was “selectively inhibit mTORC2”, the remaining activity at 40 µM is 73% and the inhibition at 40 µM was more than 20%.
Turning to `COc1cc2c(cc1OC)C(=O)c1cc(F)c(N3CCCCC3)cc1CC2` [HN2315, 3-fluoro-7,8-dimethoxy-2-(piperidin-1-yl)-10,11-dihydro-5H-dibenzo[a,d][7]annulen-5-one], the activity at 40 µM in the assay on LC3-II came out at 620%. Moreover, on mTORC1, the remaining activity at 40 µM worked out at 223%. In addition, at mTORC2, the “selective inhibition of mTORC2” value is “selectively inhibit mTORC2”, the remaining activity at 40 µM is 28% and the inhibition at 40 µM was more than 20%.
On to `COc1cc2c(cc1OC)C(=O)c1cc(F)c(N3CCN(c4ccccc4)CC3)cc1CC2` [HN2316, 3-fluoro-7,8-dimethoxy-2-(4-phenylpiperazin-1-yl)-10,11-dihydro-5H-dibenzo[a,d][7]annulen-5-one], for which the activity at 40 µM in the assay on LC3-II was found to be 256%. For the same compound, at mTORC1, the remaining activity at 40 µM turned out to be 38% and the inhibition at 40 µM was more than 20%. At mTORC2, the remaining activity at 40 µM stood at 20% and the inhibition at 40 µM was more than 20%.
Take `O=C1c2cc3c(cc2OCc2c1ccc(NC1CC1)c2F)OCO3` [HN2318, 8-(cyclopropylamino)-7-fluoro-[1,3]dioxolo[4′,5′:4,5]benzo[1,2-b]benzo[e]oxepin-11(6H)-one]: the activity at 40 µM in the assay with LC3-II was 227%. Further, the remaining activity at 40 µM on mTORC1 was found to be 109%. Moreover, at mTORC2, the “selective inhibition of mTORC2” value was “selectively inhibit mTORC2”, the remaining activity at 40 µM stood at 42% and the inhibition at 40 µM was more than 20%.
Turning to `O=C1c2cc3c(cc2OCc2c1ccc(NC1CCCC1)c2F)OCO3` [HN2319, 8-(cyclopentylamino)-7-fluoro-[1,3]dioxolo[4′,5′:4,5]benzo[1,2-b]benzo[e]oxepin-11(6H)-one], the activity at 40 µM in the assay on LC3-II is 157%. In addition, at mTORC1, the remaining activity at 40 µM was found to be 78% and the inhibition at 40 µM is more than 20%. Also, at mTORC2, the remaining activity at 40 µM stood at 79% and the inhibition at 40 µM is more than 20%.
Turning to `COc1cc2c(cc1OC)C(=O)c1cc(F)c(NC3CCCC3)cc1CC2` [HN2321, 2-(cyclopentylamino)-3-fluoro-7,8-dimethoxy-10,11-dihydro-5H-dibenzo[a,d][7]annulen-5-one], the activity at 40 µM with LC3-II amounted to 160%. At mTORC1, the remaining activity at 40 µM was 33% and the inhibition at 40 µM is more than 20%. The remaining activity at 40 µM on mTORC2 turned out to be 140%.
For `COc1cccc(CNc2cc3c(cc2F)C(=O)c2cc4c(cc2OC3)OCO4)c1` [HN2325, 9-fluoro-8-((3-methoxybenzyl)amino)-[1,3]dioxolo[4′,5′:4,5]benzo[1,2-b]benzo[e]oxepin-11(6H)-one], in the assay on LC3-II, the activity at 40 µM stood at 249%. In addition, at mTORC1, the remaining activity at 40 µM was found to be 44% and the inhibition at 40 µM is more than 20%. Besides, the remaining activity at 40 µM on mTORC2 worked out at 87%.
Take `COc1ccc(CNc2cc3c(cc2F)C(=O)c2cc4c(cc2OC3)OCO4)cc1` [HN2326, 9-fluoro-8-((4-methoxybenzyl)amino)-[1,3]dioxolo[4′,5′:4,5]benzo[1,2-b]benzo[e]oxepin-11(6H)-one]: in the assay on LC3-II, the activity at 40 µM turned out to be 404%. Besides, the remaining activity at 40 µM at mTORC1 amounted to 153%. Moreover, at mTORC2, the “selective inhibition of mTORC2” value is recorded as “selectively inhibit mTORC2”, the remaining activity at 40 µM came out at 69% and the inhibition at 40 µM was more than 20%.
Consider `COc1ccc(CNc2cc3c(cc2F)C(=O)c2cc4c(cc2OC3)OCO4)c(OC)c1` [HN2328, 8-((2,4-dimethoxybenzyl)amino)-9-fluoro-[1,3]dioxolo[4′,5′:4,5]benzo[1,2-b]benzo[e]oxepin-11(6H)-one], for which, in the assay on LC3-II, the activity at 40 µM is 340%. Further, the remaining activity at 40 µM at mTORC1 came out at 86%. In addition, at mTORC2, the “selective inhibition of mTORC2” value is reported as “selectively inhibit mTORC2”, the remaining activity at 40 µM came out at 78% and the inhibition at 40 µM was more than 20%.
As for `COc1ccc(CNc2cc3c(cc2F)C(=O)c2cc4c(cc2OC3)OCO4)cc1OC` [HN2329, 8-((3,4-dimethoxybenzyl)amino)-9-fluoro-[1,3]dioxolo[4′,5′:4,5]benzo[1,2-b]benzo[e]oxepin-11(6H)-one], the activity at 40 µM in the assay on LC3-II came to 386%. Further, at mTORC1, the remaining activity at 40 µM was 57% and the inhibition at 40 µM is more than 20%. At mTORC2, the remaining activity at 40 µM amounted to 36% and the inhibition at 40 µM was more than 20%.
In the case of `CO[C@H]1C[C@@H]2CC[C@@H](C)[C@@](O)(O2)C(=O)C(=O)N2CCCC[C@H]2C(=O)O[C@H]([C@H](C)C[C@@H]2CC[C@@H](O)[C@H](OC)C2)CC(=O)[C@H](C)/C=C(\C)[C@@H](O)[C@@H](OC)C(=O)[C@H](C)C[C@H](C)/C=C/C=C/C=C/1C` [rapamycin, reference compound], in assay [1], the “passive avoidance latency time, % of the normal control level” value is recorded as approximately 36%.
